Experimental data as given in patent US12410171B2, “Tropomyosin receptor kinase (TRK) degradation compounds and methods of use” (Cullgen (Shanghai), Inc., priority 2020, dated 2025).
Where two headings read alike, the source gives them in different places.

Key:
KM12 cells = experiment: KM12 cell viability (CellTiter-Glo); assay type: cell-based; conditions: Homo sapiens
Procedure, shortened: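 Three-day exposure of KM12 cells (5000/well, RPMI 1640 with 10% FBS, 37 °C, 5% CO2) to compound dilution series, 3-fold over 8 or 11 points (top 1000 nM in the 8-point format) or 2-fold over 12. CellTiter-Glo readout, with IC50 fitted by nonlinear least-squares regression.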

TPM3-TRKA fusion protein = biological target: T1, TPM3-TRKA fusion protein (Homo sapiens, UniProt P04629); experiment: TPM3-TRKA fusion protein levels in KM12 cells (Western blot); assay type: cell-based; conditions: for percent degradation of TPM3-TRKA protein at 0.01 µM: read-out: Degradation (at 10 nM)
T1 construct: The resulted chimeric proteins always retain the kinase domain of TRK proteins; TPM3 (fusion partner, N-terminal part of tropomyosin alpha-3, P06753); endogenous in cells; host or cells: KM12 colon cancer cells; the other entry of the earlier key: TPM3 (P06753, Tropomyosin alpha-3 chain)
Procedure, shortened: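 TPM3-TRKA levels were assessed by Western blot with chemiluminescent detection and band densitometry, after SDS-PAGE of BCA-normalized RIPA lysates. Before lysis, KM12 cells received DMSO, compounds or matched control compounds at concentrations including 0.1, 1, 10 and 100 nM and 0.4–30 nM. Exposures lasted 4 h, 8–16 h or 16 h.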

[1] = 72 h, KM12 cell viability, CellTiter-Glo, three days treatment, read-out: IC50
[2] = 16 h, TPM3-TRKA degradation in KM12 cells at 10 nM compound, category of percentage degradation
[3] = 72 h, KM12 cell viability, 11-point 3-fold serial dilution, 3 days, CellTiter-Glo, read-out: IC50
[4] = 16 h, TPM3-TRKA degradation in KM12 cells at 10 nM

T1 sequence (P04629 with tags, fused parts or gaps): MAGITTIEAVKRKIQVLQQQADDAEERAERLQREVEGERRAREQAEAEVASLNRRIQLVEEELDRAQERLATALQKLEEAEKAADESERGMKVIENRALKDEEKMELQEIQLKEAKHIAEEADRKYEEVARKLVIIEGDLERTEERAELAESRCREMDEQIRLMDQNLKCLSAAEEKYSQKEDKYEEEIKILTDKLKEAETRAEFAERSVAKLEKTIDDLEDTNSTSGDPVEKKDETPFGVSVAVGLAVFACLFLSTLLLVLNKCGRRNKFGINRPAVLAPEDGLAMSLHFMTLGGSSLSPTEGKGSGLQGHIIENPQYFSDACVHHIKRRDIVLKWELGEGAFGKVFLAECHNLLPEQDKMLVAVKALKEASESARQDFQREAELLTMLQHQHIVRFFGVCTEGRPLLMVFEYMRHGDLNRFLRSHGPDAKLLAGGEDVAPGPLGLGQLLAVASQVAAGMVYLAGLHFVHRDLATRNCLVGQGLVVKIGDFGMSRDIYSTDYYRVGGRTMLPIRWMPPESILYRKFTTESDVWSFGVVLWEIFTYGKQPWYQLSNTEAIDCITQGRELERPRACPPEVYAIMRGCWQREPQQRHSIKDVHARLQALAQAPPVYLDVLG

Structure (SMILES) | IC50 (KM12 cells; [1]) [nM] | percent degradation of TPM3-TRKA protein at 0.01 µM (TPM3-TRKA fusion protein; KM12, 16 h) [%] | percent degradation of TPM3-TRKA protein at 0.01 µM (TPM3-TRKA fusion protein; [2]) [%] | also measured
O=C1CCC(N2Cc3ccc(C4CN(C5CCN(c6cccc(-c7cnc8ccc(N9CCC[C@@H]9c9cccc(F)c9)nn78)n6)CC5)C4)cc3C2=O)C(=O)N1 (stereo partly drawn) [TR-309, 3-(6-(1-(1-(6-(6-((R)-2-(3-fluorophenyl)pyrrolidin-1-yl)imidazo[1,2-b]pyridazin-3-yl)pyridin-2-yl)piperidin-4-yl)azetidin-3-yl)-1-oxoisoindolin-2-yl)piperidine-2,6-dione] | 4.3 | 50 to 80 |  | 
O=C1CCC(N2C(=O)c3ccc(CN4CCC(N5CCN(c6ccc(C(=O)Nc7n[nH]c8ccc(Cc9cc(F)cc(F)c9)cc78)c(NC7CCOCC7)c6)CC5)CC4)cc3C2=O)C(=O)N1 (stereo not drawn) [TR-281, N-(5-(3,5-difluorobenzyl)-1H-indazol-3-yl)-4-(4-(1-((2-(2,6-dioxopiperidin-3-yl)-1,3-dioxoisoindolin-5-yl)methyl)piperidin-4-yl)piperazin-1-yl)-2-((tetrahydro-2H-pyran-4-yl)amino)benzamide] | 17.4 |  | > 80 | 
O=C1CCC(N2Cc3cc(C4CN(C5CCN(c6cccc(-c7cnc8ccc(N9CCC[C@@H]9c9cccc(F)c9)nn78)n6)CC5)C4)ccc3C2=O)C(=O)N1 (stereo partly drawn) [TR-302, 3-(5-(1-(1-(6-(6-((R)-2-(3-fluorophenyl)pyrrolidin-1-yl)imidazo[1,2-b]pyridazin-3-yl)pyridin-2-yl)piperidin-4-yl)azetidin-3-yl)-1-oxoisoindolin-2-yl)piperidine-2,6-dione] | 1.7 | > 80 |  | 
Cc1nc2cccc(N3CC(CCN4CCN(c5ccc(C(=O)Nc6n[nH]c7ccc(Cc8cc(F)cc(F)c8)cc67)c(NC6CCOCC6)c5)CC4)C3)c2c(=O)n1C1CCC(=O)NC1=O (stereo not drawn) [TR-334, N-(5-(3,5-Difluorobenzyl)-1H-indazol-3-yl)-4-(4-(2-(1-(3-(2,6-dioxopiperidin-3-yl)-2-methyl-4-oxo-3,4-dihydroquinazolin-5-yl)azetidin-3-yl)ethyl)piperazin-1-yl)-2-((tetrahydro-2/-pyran-4-yl)amino)benzamide] | 24.6 |  | 50 to 80 | 
COc1ccc(COc2ccc(Cn3c(N)nc4cc(-c5cnn(CC(=O)NCCCCNc6cccc7c6C(=O)N(C6CCC(=O)NC6=O)C7=O)c5)cnc43)cc2OC)cc1 (stereo not drawn) [CPD-499, 2-(4-(2-amino-3-(3-methoxy-4-((4-methoxybenzyl)oxy)benzyl)-3H-imidazo[4,5-b]pyridin-6-yl)-1H-pyrazol-1-yl)-N-(4-((2-(2,6-dioxopiperidin-3-yl)-1,3-dioxoisoindolin-4-yl)amino)butyl)acetamide] |  |  |  | IC50 (KM12 cells; [3]): 11.3 nM; percent degradation of TPM3-TRKA protein at 0.01 µM (TPM3-TRKA fusion protein; [4]): > 80%
O=C1CC[C@@H](N2C(=O)c3ccc(N4CC(CN5CCN(c6ccc(C(=O)Nc7n[nH]c8ccc(Cc9cc(F)cc(F)c9)cc78)c(NC7CCOCC7)c6)CC5)C4)cc3C2=O)C(=O)N1 [TR-342, (R)—N-(5-(3,5-difluorobenzyl)-1H-indazol-3-yl)-4-(4-((1-(2-(2,6-dioxopiperidin-3-yl)-1,3-dioxoisoindolin-5-yl)azetidin-3-yl)methyl)piperazin-1-yl)-2-((tetrahydro-2H-pyran-4-yl)amino)benzamide] | 3 |  | > 80 | relative effectiveness at degrading TRKA (TPM3-TRKA fusion protein; KM12 cells, 0.4-30 nM, 8-16 hours, comparison of enantiomers (FIG. 28A-28B)): more effective at degrading TRKA at lower concentrations than TR-342
O=C1CCC(N2C(=O)c3ccc(N4CC(NC5CCN(c6ccc(C(=O)Nc7n[nH]c8ccc(Cc9cc(F)cc(F)c9)cc78)c(NC7CCOCC7)c6)CC5)C4)cc3C2=O)C(=O)N1 (stereo not drawn) [TR-337, N-(5-(3,5-difluorobenzyl)-1H-indazol-3-yl)-4-(4-((1-(2-(2,6-dioxopiperidin-3-yl)-1,3-dioxoisoindolin-5-yl)azetidin-3-yl)amino)piperidin-1-yl)-2-((tetrahydro-2H-pyran-4-yl)amino)benzamide] | 5.5 |  | > 80 | 
O=C1CCC(N2C(=O)c3ccc(CN4CCCC(N5CCN(c6ccc(C(=O)Nc7n[nH]c8ccc(Cc9cc(F)cc(F)c9)cc78)c(NC7CCOCC7)c6)CC5)C4)cc3C2=O)C(=O)N1 (stereo not drawn) [TR-279, N-(5-(3,5-difluorobenzyl)-1H-indazol-3-yl)-4-(4-(1-((2-(2,6-dioxopiperidin-3-yl)-1,3-dioxoisoindolin-5-yl)methyl)piperidin-3-yl)piperazin-1-yl)-2-((tetrahydro-2H-pyran-4-yl)amino)benzamide] | 19 |  | > 80 | 
O=C1CC[C@@H](N2C(=O)c3ccc(N4CC(N5CCN(c6ccc(C(=O)Nc7n[nH]c8ccc(Cc9cc(F)cc(F)c9)cc78)c(NC7CCOCC7)c6)CC5)C4)cc3C2=O)C(=O)N1 [TR-344, (R)—N—(S-(3,5-difluorobenzyl)-1H-indazol-3-yl)-4-(4-(1-(2-(2,6-dioxopiperidin-3-yl)-1,3-dioxoisoindolin-5-yl)azetidin-3-yl)piperazin-1-yl)-2-((tetrahydro-2H-pyran-4-yl)amino)benzamide] | 9 |  | > 80 | 
O=C1CCC(N2C(=O)c3cccc(CN4CC(CN5CCN(c6cccc(-c7cnc8ccc(N9CCC[C@@H]9c9cccc(F)c9)nn78)n6)CC5)C4)c3C2=O)C(=O)N1 (stereo partly drawn) [TR-294, 2-(2,6-Dioxopiperidin-3-yl)-4-((3-((4-(6-(6-((R)-2-(3-fluorophenyl)pyrrolidin-1-yl)imidazo[1,2-b]pyridazin-3-yl)pyridin-2-yl)piperazin-1-yl)methyl)azetidin-1-yl)methyl)isoindoline-1,3-dione] | 12.5 |  | > 80 | 
O=C1CCC(N2C(=O)c3ccc(NCCCCCCCC(=O)N4CCC(Nc5cccc(C(=O)Nc6cnn7ccc(N8CCC[C@@H]8c8cc(F)ccc8F)nc67)n5)CC4)cc3C2=O)C(=O)N1 (stereo partly drawn) [CPD-472, N-(5-((R)-2-(2,5-difluorophenyl)pyrrolidin-1-yl)pyrazolo[1,5-a]pyrimidin-3-yl)-6-((1-(8-((2-(2,6-dioxopiperidin-3-yl)-1,3-dioxoisoindolin-5-yl)amino)octanoyl)piperidin-4-yl)amino)picolinamide] |  |  |  | IC50 (KM12 cells; [3]): 37 nM; percent degradation of TPM3-TRKA protein at 0.01 µM (TPM3-TRKA fusion protein; [4]): > 80%
O=C1CCC(N2Cc3cc(C4CN(C5CCN(c6ccc(C(=O)Nc7n[nH]c8ccc(Cc9cc(F)cc(F)c9)cc78)c(NC7CCOCC7)c6)CC5)C4)ccc3C2=O)C(=O)N1 (stereo not drawn) [TR-338, N-(5-(3,5-difluorobenzyl)-1H-indazol-3-yl)-4-(4-(3-(2-(2,6-dioxopiperidin-3-yl)-1-oxoisoindolin-5-yl)azetidin-1-yl)piperidin-1-yl)-2-((tetrahydro-2H-pyran-4-yl)amino)benzamide] | 1.3 | > 80 |  | 
NC(=O)C1CCN(c2cc(CN3CCN(C(=O)CNc4cccc5c4C(=O)N(C4CCC(=O)NC4=O)C5=O)CC3)ccc2NC(=O)c2coc(N3CCOCC3)n2)CC1 (stereo not drawn) [CPD-478, N-(2-(4-carbamoylpiperidin-1-yl)-4-((4-((2-(2,6-dioxopiperidin-3-yl)-1,3-dioxoisoindolin-4-yl)glycyl)piperazin-1-yl)methyl)phenyl)-2-morpholinooxazole-4-carboxamide] |  | > 80 |  | IC50 (KM12 cells; KM12, 72 h): 28 nM
